Measurements as given in US6545052B2, “Methods and compositions for inhibiting free radical polymerization in skin and hair” (Fan Tech, Ltd., priority 2000, dated 2003).

Assay: free radical inhibition assay: inhibition of polymerization of acrylic acid to polyacrylic acid
Details: for % Polymerization (after 3 hours at 85° C.): 30% acrylic acid in water, 200 ml, 0.6 ml of 1% inhibitor solution, initiated with azobisisobutyronitrile, remaining acrylic acid by iodine value
Source text: A presently preferred method for determining the free radical inhibitory capacity of a compound is based on the ability of such a compound to inhibit free radical polymerization of acrylic acid to polyacrylic acid. […] As will be appreciated, the amount of polyacrylic acid formed is inversely related to the amount of acrylic acid (i.e., monomer) remaining in the reaction mixture at the end of the assay. The amount of acrylic acid may be routinely determined by measuring the iodine value of the reaction mixture or by other methods known in the art for determinating unsaturation. A well-known free radical inhibitor compound such as hydroquinone mono methyl ether (HQMME) may be used as a standard inhibitor compound in the assay.
Into each of three 250 ml beakers, labeled “1,” “2,” and “3” respectively, is added 200 ml of a 30% solution of acrylic acid (in water). One-tenth gram of 1,3-di(3-methoxybenzyl)thiourea was dissolved in 9.9 grams of isopropyl alcohol to give a 1% (w/w) solution of the free radical inhibitor compound. […] One-tenth gram of azobisisobutyronitrile (a free radical initiator) was dissolved in 9.9 grams of isopropyl alcohol to provide a 1% solution of the free radical initiator. To beaker 1, containing 200 ml of the acrylic acid solution was added 0.6 ml of the 1% solution of 1,3-di(3-methoxybenzyl)thiourea. To beaker 2, containing 200 ml of the acrylic acid solution was added 0.6 ml of the 1% solution of hydroquinone mono methyl ether. To beaker 3 was added 0.6 ml of isopropyl alcohol (no inhibitor). […] After 3 hours, the beakers were removed from the hot plate to stop the reaction from progressing further, and the amount of acrylic acid which remained in the reaction mixture was determined by measuring the iodine value of an aliquot of the reaction mixture using the A.O.C.S. Method Tg 1a-64T in Official Methods And Recommended Practices Of The AOCS, by American Oil Chemists' Society, Champaign, Ill.

| SMILES | % Polymerization (after 3 hours at 85° C.) [%] | inhibition of the free radical polymerization reaction (in words) (assay of Example 10, 85° C., 3 hours) |
| --- | --- | --- |
| COc1cccc(CNC(=S)NCc2cccc(OC)c2)c1 [1,3-di(3-methoxybenzyl)thiourea, 1,3-di-(3-methoxybenzyl) thiourea] | 48.6 | strongly inhibited |
| COc1ccc(O)cc1 [hydroquinone mono methyl ether, reference compound] | 78.6 | – |
